# From patent publication US6348571B1, “Corticotropin release inhibiting factor and methods of using same” (Northwestern University, priority 1994, dated 2002)
# What was measured:
# [1] = tested on: AtT-20 cells; experiment: Transfection of AtT-20 cells with prepro-TRH expression plasmids: ACTH secretion (RIA); format: cell-based, mouse; details: concluded from deletion studies and known prepro-TRH processing
# Source text: The expression vector pCMV-TRH comprises cDNA encoding rat TRH under the control of the human cytomegalovirus (HCMV) immediate early promoter (Lee et al., 1988, J. Biol. Chem. 263:16604-16609). To generate this vector, a 1,322 bp fragment comprising sequences encoding TRH was excised from the plasmid pSP64, by digestion with HindIII and EcoRI. This fragment was then inserted into pcDNA-3 (Invitrogen, San Diego, Calif.) to generate pCMV-TRH comprising the HCMV immediate early promoter, the bovine growth hormone polyadenylation signal and cDNA encoding TRH inserted therebetween. This plasmid also contains sequences encoding resistance to neomycin and can therefore be used to select stably transfected cells.
# Referring to FIG. 1, two deletions were made in the expression vector pCMV-TRH. The first deletion, ΔBstEII, contains a deletion between nucleotides 506 and 787 in TRH cDNA. […] To generate ΔBstEII, pCMV-TRH was digested with BstEII, and a 6.4 kb fragment was isolated therefrom. The 5′ sticky ends were filled in with Klenow to create blunt ends, and the 6.4 kb fragment was then religated to form ΔBstEII. This religation results in restoration of the original wild type reading frame. […]
# ACTH-like immunoreactivity was measured using an antiserum which reacts with amino acids 1-24 and 1-39 on ACTH on an equimolar basis. […]
# [2] = tested on: SCW-induced inflammatory response; experiment: Thyroid status and SCW-induced inflammatory response in female rats; format: in vivo, rat
# Source text: RA is an autoimmune disease characterized by chronic degradation of the joints resulting from inflammation of synovial membranes. SCW-induced inflammation in the autoimmune prone female Lewis rat is an accepted animal model for the study of RA. […] It is likely that increased thyroid activity decreases the susceptibility to inflammatory immune disease by increasing glucocorticoid levels. The discovery of CRIF encoded within the same precursor as TRH establishes a direct link between the HPA and thyroid axes. Thyroid hormones may play a fundamental role in regulating the HPA axis by modulation of levels of prepro-TRH mRNA.
# To determine the role played by thyroid hormones and concomitant changes in the HPA axis in the development of SCW-induced inflammatory response, expression of genes which reflect the status of thyroid function (TRH), pituitary-adrenal activity (POMC) and inflammation (IL-1β and MIP-1α, a macrophage specific inflammatory protein) was measured. Adult female rats were fed a regular diet (control), or a regular diet plus 0.012% T4 (hyperthyroid) or 0.05% 6-propyl-thiouracil (PTU) supplied in the in drinking water (hypothyroid), for seven weeks. A preparation of SCW (20 μg/g of body weight) was administered intraperitoneally to the rats three days before decapitation. Anterior pituitary POMC, hypothalamic TRH and peritoneal macrophage IL-1β and MIP-1α mRNA levels were assessed by Northern blot hybridization analysis using specific cDNA probes. The levels of mRNA were normalized to the housekeeping gene, GAPD, and were quantified by image analysis densitometry. Plasma levels of TSH and CORT were determined by RIA.
# [3] = tested on: SCW-induced inflammatory response; details: Rittenhouse et al., 1995; cited from earlier work
# [4] = tested on: GH3 cells; experiment: T3 treatment of GH3 cells transfected with human prepro-TRH: TRH mRNA expression; format: cell-based, rat; details: 1-100 nM
compound,measurement,setting,value
"prepro-TRH 172-199: includes the uncleaved fourth TRH portion covalently bound to the amino terminal portion of peptide 178-199 (QHPGRRFIDPELQRSWEEKEGEGVLMPE; UniProt P01150 172-199, looked up, fragment)",CRIF activity,[1],has CRIF activity
"N[C@@H](Cc1cc(I)c(Oc2cc(I)c(O)c(I)c2)c(I)c1)C(=O)O [T4, thyroxin]",increase in macrophage MIP-1α mRNA levels on SCW administration,"[2]; SCW 20 μg/g ip, SCW-administered control rats 17-fold",1.7 fold
same,plasma CORT levels,"[2]; altered thyroid status, FIG. 12E",significant increase
same,decrease of hypothalamic TRH mRNA levels,"[2]; hyperthyroid group, 0.012% in diet, seven weeks",20%
same,inflammatory effects of SCW-induced autoimmune responses,[3],decreases the adverse inflammatory effects
N[C@@H](Cc1cc(I)c(Oc2ccc(O)c(I)c2)c(I)c1)C(=O)O [T3],expression of TRH mRNA,[4],suppressing expression of TRH mRNA
